25 compounds from patent publication US12077534B2, “Aza-heterobicyclic inhibitors of MAT2A and methods of use for treating cancer” (Les Laboratoires Servier SAS, priority 2018, dated 2024) can be followed below.

The target of test [1] is T1, MAT2A homodimer (Homo sapiens, UniProt P31153).
T1 construct: inferred from Ni sepharose purification and imidazole elution; made in house; host or cells: SF9 insect cells, recombinant baculovirus (Bac to Bac, pFASTBAC1)
Briefly: MAT2A biochemical assay (phosphate release, PiColorLock Gold). The following applies: recombinant MAT2A homodimer, 60 min pre-incubation, 25° C.; read-out: Enzyme Inhibition. The procedure:
Mat2A protein was expressed by recombinant baculovirus in SF9 infected cells using the Bac to Bac system cloned into the pFASTBAC1 vector (Invitrogen, Carlsbad, CA). Recombinant MAT2A was isolated from the cell lysate of 150 g of infected cells using HP Ni sepharose column chromatography. Recombinant MAT2A homodimer was eluted with 250 and 500 mM imidazole, and fractions containing MAT2A were identified by sodium dodecyl sulfate polyacrylamide gel electrophoresis and pooled.
For determination of the inhibitory potency of compounds against the MAT2A homodimer, protein was diluted to 4 μg/mL in assay buffer (50 mM Tris, pH 8.0, 50 mM KCl, 15 mM MgCl2, 0.3 mM EDTA, 0.005% [w/v] bovine serum albumin [BSA]). Test compound was prepared in 100% dimethyl sulfoxide (DMSO) at 50× the desired final concentration. A 1 μL volume of compound dilution was added to 40 μL of enzyme dilution and the mixture was allowed to equilibrate for 60 minutes at 25° C. The enzymatic assay was initiated by the addition of 10 μL of substrate mix (500 μM ATP, pH 7.0, 400 μM L-methionine in 1× assay buffer), and the mixture was incubated for a further 60 minutes at 25° C. The reaction was halted and the liberated phosphate released by the enzyme in stoichiometric amounts by the production of S-adenosyl methionine (SAM) was measured using the PiColorLock Gold kit (Innova Biosciences, UK). Absolute product amounts were determined by comparison to a standard curve of potassium phosphate buffer, pH 8.0.

Test [2] relates to MAT2A activity (SAM) in HCT116 cells with deleted MTAP gene. Briefly: Cellular assay of target engagement (SAM) by LC-MS/MS. The following applies: Homo sapiens, HCT-116; HCT116 MTAP −/−, 72 hrs; read-out: Cell 72 h SAM Inhibition (MTAP −/−). It is filed as cell-based. The procedure: Measurement of MAT2A activity in cells was made by direct quantitation of the abundance of the product of its enzymatic activity, SAM. Cancer cells were treated with candidate MAT2A inhibitors for a suitable incubation period, and the cells were then lysed using a reagent which quenched any further enzyme activity. Soluble metabolites including SAM were collected and SAM itself was directly measured from the lysate using quantitative LC-MS/MS.
A typical assay was performed using an HCT116 human colon carcinoma cell line which was genetically engineered to delete the MTAP gene (commercially available from Horizon Discovery). This cell line was utilized because it was determined that loss of the MTAP gene predicts sensitivity to MAT2A inhibitors. Cells were plated in 96-well dishes at appropriate cell density. Following 24 hours, cells were then treated with the candidate MAT2A inhibitor. Prior to addition to cells, the compound was first serially diluted in 100% DMSO, typically as a 3-fold serial dilution starting at 500× top dose with 10 dose points including DMSO only control. Compound was then transferred to a working stock plate in cell culture media by adding 5 μL of compound in DMSO to 495 μL of cell culture media. This working stock was then added to cells via a further 5-fold dilution, by adding 25 μL of working stock to 100 μL of cells in culture media. Following compound addition, cells were incubated at 37° C./5% CO2 for 72 hrs.
To quantitate SAM levels following compound treatment, cells were gently washed once in ammonium carbonate buffer (75 mM at pH 7.4), placed on dry ice, and lysed with metabolite extraction buffer (80% cold methanol and 20% water (v/v) with acetic acid at 1M final concentration with 200 ng/mL deuterated d3-SAM as internal control). Following centrifugation at 4° C. at 3,200 rpm for 30 minutes, the supernatant was collected and stored at −80° C. until analysis by Liquid Chromatography with tandem Mass Spectrometry (LC-MS/MS). LC-MS/MS analysis was performed using an API6500 Mass Spectrometer (Sciex, Framingham, MA, USA) operating in positive ion spray mode and equipped with a Waters UPLC Acquity (Waters, Milford, MA, USA) BEH Amide column. Multiple Reaction Monitoring data was acquired for SAM and the d3-SAM standard, using a mass transition pair at m/z 399.2→250.1 and 402.2→250.1, respectively. In a typical LC-MS/MS analysis, the initial flow rate was 0.5 ml/min of 25% mobile phase A (acetonitrile and water at 5:95 (v/v) with 1% formic acid and 10 mM ammonium acetate) and 75% mobile phase B (acetonitrile and water at 95:5 (v/v) with 1% formic acid and 10 mM ammonium acetate), 0.2-0.5 minutes with 75%-35% mobile phase B, 25%-65% mobile phase A, at 0.5 min 65% mobile phase A and 35% mobile phase B, 1.0-1.1 minutes with 35%-75% mobile phase B, 65%-25% mobile phase A, at 1.1 min 25% mobile phase A and 75% mobile phase B with a total run time of 1.5 minutes.

For test [3], the system named is HCT116 MTAP−/−. Briefly: Inhibition of cellular proliferation (Cell Titer Glo), HCT116 MTAP-/-. It is filed as cell-based. The following applies: Homo sapiens, HCT-116, 96 h, 4 days, read-out: 4 Day Relative Growth Inhibition (MTAP −/−). The procedure: (§1) Test compound impact on cancer cell growth was assessed by treating cancer cells with compound for 4 days and then measuring proliferation using an ATP-based cell proliferation readout (Cell Titer Glo, Promega Corporation).
(§2) In a typical assay an isogenic pair of HCT116 human colon carcinoma cell lines which vary only in MTAP deletion status (HCT116 MTAP+/+ and HCT116 MTAP−/−) were plated in 96-well dishes at appropriate cell density. Following 24 hours, cells were then treated with the candidate MAT2A inhibitor. Prior to addition to cells, the compound was first serially diluted in 100% DMSO, typically as a 3-fold serial dilution starting at 500× top dose with 10 dose points including DMSO only control. Compound was then transferred to a working stock plate in cell culture media by adding 5 μL of compound in DMSO to 495 μL of cell culture media. This working stock was then added to cells via a further 5-fold dilution, by adding 25 μL of working stock to 100 μL of cells in culture media. Following compound addition, cells were incubated at 37° C./5% CO2 for 4 days.
(§3) To measure inhibition of cellular proliferation, cells were allowed to equilibrate to room temperature for 30 minutes, and were then treated with 125 μL of Cell Titer Glo reagent. The plate was then covered with aluminum foil and shaken for 15 minutes to ensure complete mixing and full cell lysis. Luminescent signal was then measured using a plate-based luminometer Veritas version 1.9.2 using ATP standard curve to confirm assay reproducibility from run to run. This luminescence measure was converted to a proliferation index by subtracting from each data point the ATP luminescence signal measured from a bank (no cells) well and dividing by the ATP luminescence signal measured in 0.2% DMSO control well adjusted for signal in blank well. Compound activity was then represented as a percentage change in proliferation relative to a within-plate DMSO control against log 10 of compound concentration in molar (M) units.

The subject of test [4] is HCT116 MTAP+/+. Briefly: Inhibition of cellular proliferation (Cell Titer Glo), HCT116 MTAP+/+. It is filed as cell-based. The following applies: Homo sapiens, HCT-116, 96 h, 4 days, read-out: 4 Day Relative Growth Inhibition (MTAP +/+). The protocol: as §1, §2, §3

pIC50: −log10 of the molar value. Bounds are passed on as bounds.

T1 sequence (P31153 whole entry): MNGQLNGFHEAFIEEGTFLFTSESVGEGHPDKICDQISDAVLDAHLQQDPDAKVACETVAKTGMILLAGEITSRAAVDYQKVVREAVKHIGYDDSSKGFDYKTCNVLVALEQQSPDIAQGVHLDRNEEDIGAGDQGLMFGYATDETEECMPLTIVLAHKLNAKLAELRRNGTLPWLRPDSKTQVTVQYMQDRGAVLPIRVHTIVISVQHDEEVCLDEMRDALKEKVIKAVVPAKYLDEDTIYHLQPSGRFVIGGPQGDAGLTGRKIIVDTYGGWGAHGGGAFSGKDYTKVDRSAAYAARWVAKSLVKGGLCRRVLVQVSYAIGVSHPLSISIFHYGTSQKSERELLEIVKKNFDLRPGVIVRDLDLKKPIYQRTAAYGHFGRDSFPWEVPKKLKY

Turning to `Cn1cc2cc(-n3nc4ccc(OCC5CC5)nc4c(-c4ccc(Cl)cc4)c3=O)ccc2n1` [Example 101, 4-(4-chlorophenyl)-6-(cyclopropylmethoxy)-2-(2-methyl-2H-indazol-5-yl)pyrido[3,2-c]pyridazin-3(2H)-one], the pIC50 in test [1] was over 7.00; in test [2] it was over 7.00; in test [3] it was 6.00 to 7.00; in test [4], at most 6.00.

Take `CCNc1ccc2nn(-c3ccc4nn(C)cc4c3)c(=O)c(-c3ccc(Cl)cc3)c2n1` [Example 103, 4-(4-chlorophenyl)-6-(ethylamino)-2-(2-methyl-2H-indazol-5-yl)pyrido[3,2-c]pyridazin-3(2H)-one]: the pIC50 is over 7.00 in test [1], over 7.00 in test [2], over 7.00 in test [3] and at most 6.00 in test [4]. On to `COc1ccc(-n2nc3ccc(OCC(F)(F)F)nc3c(-c3ccc(Cl)cc3)c2=O)cc1` [Example 118], for which the pIC50 in test [1] is 6.00 to 7.00. Take `Cn1cc2cc(-n3nc4ccc(N5CCC5)nc4c(-c4ccc(OC(F)F)cc4)c3=O)ccc2n1` [Example 164]: in test [1], the pIC50 is 6.00 to 7.00.

In the case of `N#Cc1ccc(-n2nc3ccc(OCC(F)F)nc3c(-c3ccc(OC(F)F)cc3)c2=O)cc1` [Example 181], in test [1], the pIC50 is 5.00 to 6.00. In the case of `CNc1ccc(-n2nc3ccc(OCC(F)F)nc3c(-c3ccc(OC(F)F)cc3)c2=O)cc1` [Example 185], the pIC50 in test [1] was 6.00 to 7.00. On the same count and under the same terms, the value for `O=c1c(-c2ccc(OC(F)F)cc2)c2nc(OCC(F)F)ccc2nn1-c1cncs1` [Example 186] was 6.00 to 7.00; that for `O=c1c(-c2ccc(OC(F)F)cc2)c2nc(OCC(F)F)ccc2nn1-c1ccc(Cl)cc1` [Example 190] was 5.00 to 6.00. Take `CN(C)c1ccc2nn(-c3ccc4nn(C)c(N(C)C)c4c3)c(=O)c(-c3ccc(OC(F)F)cc3)c2n1` [Example 204, 4-(4-(difluoromethoxy)phenyl)-6-(dimethylamino)-2-(3-(dimethylamino)-2-methyl-2H-indazol-5-yl)pyrido[3,2-c]pyridazin-3(2H)-one]: the pIC50 in test [1] is over 7.00. As to `Cn1cc2cc(-n3nc4ccc(OCC(F)F)nc4c(C#C[Si](C)(C)C)c3=O)ccc2n1` [Example 213, 6-(2,2-difluoroethoxy)-2-(2-methyl-2H-indazol-5-yl)-4-((trimethylsilyl)ethynyl)pyrido[3,2-c]pyridazin-3(2H)-one], the pIC50 in test [1] was 6.00 to 7.00; in test [3], at most 6.00; in test [4], at most 6.00. In the case of `O=C1CCC(n2nc3ccc(OCC(F)F)nc3c(-c3ccc(OC(F)F)cc3)c2=O)CC1` [Example 216, 6-(2,2-difluoroethoxy)-4-(4-(difluoromethoxy)phenyl)-2-(4-oxocyclohexyl)pyrido[3,2-c]pyridazin-3(2H)-one], the pIC50 in test [1] was 6.00 to 7.00.

With `Cc1ccc(-c2c(=O)n(-c3ccc4nn(C)cc4c3)nc3ccc(NC4CC4)nc23)cn1` [Example 306], the pIC50 in test [1] was over 7.00. Consider `COc1ccc(-c2c(=O)n(-c3ccc4nn(C)cc4c3)nc3ccc(NC4CC4)nc23)cn1` [Example 308], for which the pIC50 in test [1] was over 7.00.

With `CCNc1ccc2nn(-c3ccc4ncsc4c3)c(=O)c(-c3ccc(C4CC4)cc3)c2n1` [Example 311], the pIC50 in test [1] is over 7.00. For the compound `CCNc1ccc2nn(-c3ccc4nn(C)cc4c3)c(=O)c(-c3ccc(C4CC4)cc3)c2n1` [Example 312], in test [1], the pIC50 was over 7.00. Consider `Cn1cc2cc(-n3nc4ccc(OCC5CC5(F)F)nc4c(-c4ccc(C5CC5)nc4)c3=O)ccc2n1` (stereo not drawn) [Example 314], for which the pIC50 in test [1] is over 7.00. Same read-out and setting: the value for `[2H]C([2H])([2H])c1ccc(-c2c(=O)n(-c3ccc4nn(C)cc4c3)nc3ccc(NCC)nc23)cn1` [Example 320] was over 7.00; that for `[2H]C([2H])([2H])Oc1ccc(-n2nc3ccc(NCC(F)(F)F)nc3c(-c3ccc(C(F)F)nc3)c2=O)cc1` [Example 322, 4-(6-(difluoromethyl)pyridin-3-yl)-2-(4-(methoxy-d3)phenyl)-6-((2,2,2-trifluoroethyl)amino)pyrido[3,2-c]pyridazin-3(2H)-one] was over 7.00. With `[2H]C([2H])([2H])C([2H])([2H])Nc1ccc2nn(-c3ccc4nn(C)cc4c3)c(=O)c(-c3ccc(C(F)F)nc3)c2n1` [Example 324], in test [1], the pIC50 is over 7.00. `[2H]C([2H])([2H])n1cc2cc(-n3nc4ccc(NC([2H])([2H])C([2H])([2H])[2H])nc4c(-c4ccc(C)nc4)c3=O)ccc2n1` [Example 325]: the pIC50 in test [1] is over 7.00. Regarding `CCNc1ccc2nn(-c3ccc(=O)n(C)c3)c(=O)c(-c3ccc(C(F)F)nc3)c2n1` [Example 326], the pIC50 in test [1] is over 7.00. For `Cn1cc(-n2nc3ccc(OCC(F)F)nc3c(-c3ccc(C(F)F)nc3)c2=O)ccc1=O` [Example 328], the pIC50 in test [1] is 6.00 to 7.00.

In the case of `Cn1cc(-n2nc3ccc(NCC(F)(F)F)nc3c(-c3ccc(C(F)F)nc3)c2=O)ccc1=O` [Example 329], the pIC50 in test [1] was 6.00 to 7.00. As for `[2H]C([2H])([2H])n1cc2cc(-n3nc4ccc(NCC)nc4c(-c4ccc(C)nc4)c3=O)ccc2n1` [Example 330], in test [1], the pIC50 is over 7.00. With `CCNc1ccc2nn(-c3ccc4nn(C)cc4c3)c(=O)c(-c3ccc4[nH]cc(C#N)c4c3)c2n1` [Example 332, 5-(6-(ethylamino)-2-(2-methyl-2H-indazol-5-yl)-3-oxo-2,3-dihydropyrido[3,2-c]pyridazin-4-yl)-1H-indole-3-carbonitrile], the pIC50 in test [1] was over 7.00.
